Measured values from patent publication US10238688B2, “Combination therapies for bladder cancer” (GENEDIA BIOTECH CO. LTD., priority 2015, dated 2019).

Key:
Format in all cases: cell-based, human
[1] = test system: DNA Damage response pathway; assay: Cignal Finder dual-luciferase pathway reporter, DNA Damage response (5637, Biu87, UM-UC-3, H-bc, SV-HUC-1); parameters: key to Relative activity, DNA Damage reporter: firefly/renilla ratio, background (negative control) subtracted; settings: for Relative activity, DNA Damage reporter: luc/Renluc relative to negative control reporter, single drug at 4 folds vs EH/Ci/Mi combination
Description: The pathway analysis was performed with Qiagen's Cignal Finder Pathway Reporter Array systems according to the manufacturer's instructions. The pathway-focused dual-luciferase reporter construct was a mixture of an inducible transcription factor responsive firefly luciferase reporter and constitutively expressing renilla construct. Transcriptional response element (TRE) sequence response elements to each specific transcriptional factor triggered by the different signaling pathways are positioned before the TATA box of firefly luciferase reporter gene. The extent of activity of the reporter reflects the level of activity of the particular signaling pathway. CMV controlled renilla expression vector is co-transfected into the cell as an internal control. Non-inducible reporter construct that lacks the transcriptional factor binding sequence and could not be induced by any transcription factors is used as a negative control. Cells transfected with CMV directed firefly luciferase reporter gene serve as a positive control. Briefly, cells seeded in 6-well plates were transfected with Cignal finder pathway arrays according to the manufacturer's instructions (Qiagen). Then cells were seeded onto 96-well plates. […] After 6 h of incubation with the different drugs at 37° C., cells were lysed and a dual luciferase assay (for firefly and renilla luciferase) was performed using a PromegaGloMax 20/20 illuminometer. The firefly luciferase activities were normalized over the renilla luciferase activities after background activity determined by luciferase activities of negative controls was subtracted. A triple test of cell survival under these drug doses was also performed by MTT assay following 18 h incubation at 37° C. […]

Notch pathway = assay: Cignal Finder dual-luciferase pathway reporter, Notch; parameters: key to Relative activity, Notch reporter: firefly/renilla ratio, background (negative control) subtracted; settings: for Relative activity, Notch reporter: luc/Renluc relative to negative control reporter, single drug at 4 folds vs EH/Ci/Mi combination;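 on digitalized pathway activity, Notch: code −1 means repressed below 0.5-fold of 5637 cells or no-drug control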
Description: (§1) The pathway analysis was performed with Qiagen's Cignal Finder Pathway Reporter Array systems according to the manufacturer's instructions. The pathway-focused dual-luciferase reporter construct was a mixture of an inducible transcription factor responsive firefly luciferase reporter and constitutively expressing renilla construct. Transcriptional response element (TRE) sequence response elements to each specific transcriptional factor triggered by the different signaling pathways are positioned before the TATA box of firefly luciferase reporter gene. The extent of activity of the reporter reflects the level of activity of the particular signaling pathway. CMV controlled renilla expression vector is co-transfected into the cell as an internal control. Non-inducible reporter construct that lacks the transcriptional factor binding sequence and could not be induced by any transcription factors is used as a negative control. Cells transfected with CMV directed firefly luciferase reporter gene serve as a positive control. Briefly, cells seeded in 6-well plates were transfected with Cignal finder pathway arrays according to the manufacturer's instructions (Qiagen). Then cells were seeded onto 96-well plates. Ci (6000 ng/mL), Mi (800 ng/mL), or EH (1000 ng/mL) and Ci/Mi/EH combination (Ci, 1500 ng/mL, Mi, 800 ng/mL and EH, 1000 ng/m L) were then added to the cells 24 h post-transfection. After 6 h of incubation with the different drugs at 37° C., cells were lysed and a dual luciferase assay (for firefly and renilla luciferase) was performed using a PromegaGloMax 20/20 illuminometer. The firefly luciferase activities were normalized over the renilla luciferase activities after background activity determined by luciferase activities of negative controls was subtracted. A triple test of cell survival under these drug doses was also performed by MTT assay following 18 h incubation at 37° C. […]

Wnt pathway = assay: Cignal Finder dual-luciferase pathway reporter, Wnt; parameters: key to Relative activity, Wnt reporter: firefly/renilla ratio, background (negative control) subtracted; settings: for Relative activity, Wnt reporter: luc/Renluc relative to negative control reporter, single drug at 4 folds vs EH/Ci/Mi combination;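 on digitalized pathway activity, Wnt: code −1 means repressed below 0.5-fold of 5637 cells or no-drug control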
Description: as §1

EJ = assay: MTT cell survival / IC50, EJ cells
Description: The clinical grade of the chemotherapeutics (NCI Dictionary of Cancer Terms) was provided by the First Affiliated Hospital of Harbin Medical University: Pirarubicin (Pi, Wanle, Shenzhen), Paclitaxel (Pa, Taiji, Sichuan), Adriamycin (Ad, Pfizer, Jiangsu), Epirubicin Hydrochloride (EH, Haizheng, Zhejiang), Hydroxycamptothecin (Hy, Lishizhen, Hubei), Cisplatin (Ci, Haosen, Jiangsu), Gemcitabine (Ge, Haosen, Jiangsu) and Mitomycin (Mi, Haizheng, Zhejiang). The drug induced cell death was determined by a thiazolyl […] (MTT, 490 nm reading) based cell proliferation assay in the cultured cells following treatment by various concentrations of drugs for 72 hours. The relative chemoresistance to each drug of all cell lines was calculated with the lowest IC50 as a reference. The overall chemoresistance of each cell line was described as “chemoresistance index”, the numerator of the total relative IC50 to all the drugs over the number of drugs to rank the overall resistance state of each cell line to the six chemotherapeutics collectively.
The relative IC50 (fold) of each drug of all nine cell lines was normalized to the lowest IC50 in the most sensitive cell line (FIG. 2G), to describe the single drug resistance of cell lines. The overall chemoresistance of each cell line, a “chemoresistance index” (the numerator of the total relative IC50 over the number of drugs) (FIG. 2G) were calculated to rank the overall resistance state of each cell line to this six chemotherapeutics.
Twenty six-drug combinations at the indicated doses were initially generated through a random number generator (using MATLAB MathWorks©, Natick, Mass., U.S.) (The upper half of Table 1). The cell survival (% over the not drug control) of treated cells was determined and then used for a calculation of the average cumulative cell survival (%, ACS: the sum of cell survival (%) per combination divided by the number of cell lines tested). ACS<30% was used to separate the effective from the not-effective combinations.

In the case of `COC12C(COC(N)=O)C3=C(C(=O)C(C)=C(N)C3=O)N1CC1NC12` (centres unmarked) [Mi, [6-Amino-8a-methoxy-5-methyl-4,7-dioxo-1,1a,2,4,7,8,8a,8b-octahydroazireno [2′,3′:3,4]pyrrolo[1,2-a]indol-8-yl]methyl carbamate], the “relative drug trigged pathway activity over the no-drug level, DNA Damage” value ([1]; 5637 cells) is reported as 2.87 fold, the “Relative activity, DNA Damage reporter” value ([1]; 5637 cells) is reported as 0.63 and the “digitalized pathway activity, DNA Damage” value ([1]; Biu87 cells) is reported as 0 (null (0) if neither of the above holds). The “relative drug trigged pathway activity over the no-drug level, DNA Damage” value ([1]; Biu87 cells) was 1.35 fold, the “Relative activity, DNA Damage reporter” value ([1]; Biu87 cells) was 2.03 and the “digitalized pathway activity, DNA Damage” value ([1]; H-bc cells) was 0 (null (0) if neither of the above holds). For the same molecule, the “relative drug trigged pathway activity over the no-drug level, DNA Damage” value ([1]; H-bc cells) was 1.08 fold, the “Relative activity, DNA Damage reporter” value ([1]; H-bc cells) was 0.73 and the “relative drug trigged pathway activity over the no-drug level, DNA Damage” value ([1]; SV-HUC-1 cells) was 1.75 fold. For the same molecule, the “Relative activity, DNA Damage reporter” value ([1]; SV-HUC-1 cells) was 4.20, the “digitalized pathway activity, DNA Damage” value ([1]; UM-UC-3 cells) was 0 (null (0) if neither of the above holds) and the “Relative activity, DNA Damage reporter” value ([1]; UM-UC-3 cells) was 4.77. For the same molecule, the “relative drug trigged pathway activity over the no-drug level, DNA Damage” value ([1]; Um-Uc-3 cells) was 1.37 fold, the “relative drug trigged pathway activity over the no-drug level, Notch” value (Notch pathway; 5637 cells) was 2.2 fold and the “Relative activity, Notch reporter” value (Notch pathway; 5637 cells) was 2.23. For the same molecule, the “digitalized pathway activity, Notch” value (Notch pathway; Biu87 cells) was 0 (null (0) if neither of the above holds), the “relative drug trigged pathway activity over the no-drug level, Notch” value (Notch pathway; Biu87 cells) was 1.45 fold and the “Relative activity, Notch reporter” value (Notch pathway; Biu87 cells) was 6.42. For the same molecule, the “relative drug trigged pathway activity over the no-drug level, Notch” value (Notch pathway; H-bc cells) was 0.42 fold, the “Relative activity, Notch reporter” value (Notch pathway; H-bc cells) was 0.59 and the “digitalized pathway activity, Notch” value (Notch pathway; SV-HUC-1 cells) was 0 (null (0) if neither of the above holds). The “relative drug trigged pathway activity over the no-drug level, Notch” value (Notch pathway; SV-HUC-1 cells) was 0.95 fold, the “Relative activity, Notch reporter” value (Notch pathway; SV-HUC-1 cells) was 4.10 and the “Relative activity, Notch reporter” value (Notch pathway; UM-UC-3 cells) was 7.40. The “relative drug trigged pathway activity over the no-drug level, Notch” value (Notch pathway; Um-Uc-3 cells) was 1.5 fold, the “relative drug trigged pathway activity over the no-drug level, Wnt” value (Wnt pathway; 5637 cells) was 1.87 fold and the “Relative activity, Wnt reporter” value (Wnt pathway; 5637 cells) was 1.63. For the same molecule, the “digitalized pathway activity, Wnt” value (Wnt pathway; Biu87 cells) was 0 (null (0) if neither of the above holds), the “relative drug trigged pathway activity over the no-drug level, Wnt” value (Wnt pathway; Biu87 cells) was 1.06 fold and the “Relative activity, Wnt reporter” value (Wnt pathway; Biu87 cells) was 1.77. For the same molecule, the “digitalized pathway activity, Wnt” value (Wnt pathway; H-bc cells) was 0 (null (0) if neither of the above holds), the “relative drug trigged pathway activity over the no-drug level, Wnt” value (Wnt pathway; H-bc cells) was 0.55 fold and the “Relative activity, Wnt reporter” value (Wnt pathway; H-bc cells) was 0.60. For the same molecule, the “digitalized pathway activity, Wnt” value (Wnt pathway; SV-HUC-1 cells) was 0 (null (0) if neither of the above holds), the “relative drug trigged pathway activity over the no-drug level, Wnt” value (Wnt pathway; SV-HUC-1 cells) was 1.29 fold and the “Relative activity, Wnt reporter” value (Wnt pathway; SV-HUC-1 cells) was 1.60. The “digitalized pathway activity, Wnt” value (Wnt pathway; UM-UC-3 cells) was 0 (null (0) if neither of the above holds), the “Relative activity, Wnt reporter” value (Wnt pathway; UM-UC-3 cells) was 4.06 and the “relative drug trigged pathway activity over the no-drug level, Wnt” value (Wnt pathway; Um-Uc-3 cells) was 1.13 fold. For the same molecule, the “Cell survival (%)” value (EJ; Table S3, ng/ml: Pi 40, Pa 160, EH 250, Ci 1500, Mi 200, 1=Ci/Mi, 2=EH/Ci/Mi, 3=Pa/Ci/Mi, 4=Pi/Ci/Mi) was 45.2% and the “Single drug 4X Cell Survival (%)” value (EJ; ng/ml: EH 1000, Ci 6000, Mi 800, Pi 160, Pa 640, Ge 20, EH/Ci/Mi regimen) was 28.67%.
